Measured values taken from US9980928B2, “Hydroxy aliphatic substituted phenyl aminoalkyl ether derivatives” (PROUS INSTITUTE FOR BIOMEDICAL RESEARCH, S.A., priority 2012, dated 2018).

Columns and labels:
mice [1] = assay: Tail suspension assay in mice; assay type: in vivo
Description: Another method of measuring antidepressant activity that may be used to evaluate the compounds of the present invention is the tail suspension test in mice described in Vogel, H. G. and Vogel, W. H. (Eds.) Drug Discovery and Evaluation, Springer-Verlag Berlin Heidelberg, 1997) pp. 304-3059). The mouse tail suspension assay was conducted 60 minutes after dosing. The duration of immobility was recorded for a period of 5 minutes after tail suspension was initiated, and reduction in the duration of immobility by ≥50% relative to the control group indicated antidepressant activity. Statistical analysis was also performed by using one-way ANOVA followed by Dunnett's test to compare the data of test compound-treated and vehicle control groups. Significance was considered to be P<0.05.

[2] = tested on: phosphorylation of CREB in SN56 and T48 cell lines; assay: CREB phosphorylation in SN56 and T48 cell lines (western blot); assay type: cell-based, mouse; details: both cell lines (SN56 and T48)
Description: The purpose of the study was to assess the acute biochemical neuronal changes in neurotrophin and synaptic plasticity signaling in vitro after the incubation in SN56 (fusion of mouse septal area cells and neuroblastoma cells with no TRKB expression) and T48 (SN56 stable transfected to express TrkB) cell lines the Examples 3 and 4. These changes were studied with a western blot assessment of Erk, Akt, PLC, Trkb, BDNF and CREB (cAMP response element-binding protein) phosphorilation assays.
Proteins were denatured in 62.5 mM Tris-HCl (pH 6.8), 2% (w/v) SDS, 10% glycerol, 140 mM β-mercaptoethanol and 0.1% (w/v) bromophenol blue, heated at 100° C. for 5 min (except for VGLUT1 blotting: 10 minutes 60° C.) and resolved in denaturing polyacrylamide gels (8% acrylamide); proteins were transferred to a nitrocellulose membrane), and washed twice in Tris-buffered saline containing 0.1% Tween-20 (TBS-T). […]
After primary antibody incubation, membranes were washed with TBS-T and incubated for 1 h at room temperature with the appropriated horseradish peroxidase-conjugated secondary antibody (Promega, Madison, Wis., USA), and the reaction was finally visualized with the Western Blotting Luminol Reagent (Santa Cruz Biotechnology, Santa Cruz, Calif., USA). Western blot replicates were scanned and quantified using a computer-assisted densitometric analysis. […]

mice [3] = assay: Mouse formalin assay (analgesic activity); assay type: in vivo
Description: The analgesic activity of the compounds of the present invention is determined making use of the mouse formalin test described in Hunskaar, S. J Neurosci Methods 1985, 14(1): 69-76. The hind paw licking time was measured at 5-minute intervals for 30 minutes following subplantar injection of formalin (0.02 mL, 2%). Statistical analysis using one-way ANOVA followed by Dunnett's test was applied for comparison between the test substance-treated and vehicle control groups. P<0.05 was considered significant.

serotonin transporter = molecular target: T1, serotonin transporter (Homo sapiens, UniProt P31645); assay: Serotonin transporter binding radioligand inhibition ([3H]-imipramine); details: concentration 10 μM; read-out: serotonin binding inhibition
T1 construct: expressed in transfected cells; host or cells: CHO cells
T1 sequence (P31645 whole entry): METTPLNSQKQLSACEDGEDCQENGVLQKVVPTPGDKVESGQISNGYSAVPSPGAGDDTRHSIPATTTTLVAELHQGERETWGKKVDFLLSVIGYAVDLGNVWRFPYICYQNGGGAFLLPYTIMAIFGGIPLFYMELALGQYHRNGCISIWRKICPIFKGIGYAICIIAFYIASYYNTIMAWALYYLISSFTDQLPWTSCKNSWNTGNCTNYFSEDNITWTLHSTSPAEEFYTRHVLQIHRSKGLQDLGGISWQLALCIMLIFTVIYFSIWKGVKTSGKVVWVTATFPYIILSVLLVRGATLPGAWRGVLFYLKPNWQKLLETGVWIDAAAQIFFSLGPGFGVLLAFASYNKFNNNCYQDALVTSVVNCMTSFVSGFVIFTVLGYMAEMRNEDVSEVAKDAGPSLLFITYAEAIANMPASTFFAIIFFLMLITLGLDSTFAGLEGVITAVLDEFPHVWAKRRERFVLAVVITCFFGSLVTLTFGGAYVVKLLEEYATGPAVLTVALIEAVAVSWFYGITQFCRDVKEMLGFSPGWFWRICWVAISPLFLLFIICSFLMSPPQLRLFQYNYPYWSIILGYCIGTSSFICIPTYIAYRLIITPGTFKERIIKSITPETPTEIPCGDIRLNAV
Excerpt: The serotonin transporter removes serotonin from the synaptic deft. The serotonin transporter terminates the effects of […], enabling its reuse by the presynaptic neuron.

CHO cells = assay: In vitro MTT toxicity screen; assay type: cell-based, Chinese hamster; details: 10 μM, compared to positive control group (10% DMSO)
Description: The toxicity of the compounds of the present invention at a concentration of 10 μM has been explored using the tetrazolium salt (MTT) method in CHO cells. The MTT method involving conversion of MTT to colored formazan by cells serves as an indirect measurement of cell growth/cell kill, as reported by several groups (Paimela, T. et al. Mol Vis 2012; 18: 1189-96; Hansen, M. B. et al. J Immunol Methods 1989, 119(2): 203-10).
In the MTT assay, cytotoxicity is correlated with the color of MTT and is measured with a spectrophotometer at the wavelength of 570 nm. Briefly, fresh MTT solution (10 mg/mL in 1×PBS) was added (1:20 volume of medium) and the cells were incubated for 1.5 hours. The cells were lysed and purple formazan was dissolved into the solution by overnight incubation with MTT lysis buffer (20% SDS, 50% N,N-dimethylformamide, 2% acetic acid, 25 mM HCl; the volume of medium+volume of MTT salt solution).

uptake of norepinephrine = uptake of norepinephrine (Homo sapiens, UniProt P23975); assay: Uptake inhibition of norepinephrine, cellular assay; assay type: cell-based; details: read-out: Norepinephrine reuptake inhibition (IC50 μM)
Sequence of uptake of norepinephrine (P23975 whole entry): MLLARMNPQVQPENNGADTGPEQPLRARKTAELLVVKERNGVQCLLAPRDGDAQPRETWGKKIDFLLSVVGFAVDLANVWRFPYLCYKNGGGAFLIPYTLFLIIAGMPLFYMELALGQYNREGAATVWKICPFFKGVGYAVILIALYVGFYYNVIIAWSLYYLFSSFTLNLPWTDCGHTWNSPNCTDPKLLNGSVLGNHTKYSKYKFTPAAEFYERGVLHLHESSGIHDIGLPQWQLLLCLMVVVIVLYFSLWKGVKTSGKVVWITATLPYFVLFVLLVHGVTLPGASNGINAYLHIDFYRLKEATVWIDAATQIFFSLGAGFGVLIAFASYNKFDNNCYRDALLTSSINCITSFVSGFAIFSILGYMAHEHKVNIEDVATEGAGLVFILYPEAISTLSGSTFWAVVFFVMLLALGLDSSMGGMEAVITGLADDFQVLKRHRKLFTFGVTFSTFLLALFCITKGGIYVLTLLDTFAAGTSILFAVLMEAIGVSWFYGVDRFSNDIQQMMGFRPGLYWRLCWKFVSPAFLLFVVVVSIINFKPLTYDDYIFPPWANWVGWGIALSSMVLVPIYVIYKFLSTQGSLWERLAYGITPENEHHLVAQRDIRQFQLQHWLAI
Description: (§1) The effect of the compounds of the present invention as inhibitors of the uptake of norepinephrine and serotonin in cellular assays at concentrations that range from […] to 1 nM is determined following the methods described in Galli, A. et al. J Exp Biol 1995, 198(Pt. 10): 2197-212 and Gu, H. et al. J Biol Chem. 1994, 269(10):7124-30.

[4] = molecular target: T2, norepinephrine (NE) transporter (Homo sapiens, UniProt P23975); assay: Norepinephrine transporter binding radioligand inhibition ([3H]-nisoxetine); details: concentration 10 μM
T2 construct: expressed in transfected cells; host or cells: CHO cells
T2 sequence (P23975 whole entry): as above
Description: The norepinephrine (NE) transporter removes NE from the synaptic cleft. The NE transporter terminates the effects of […], enabling its reuse by the presynaptic neuron. The in vitro binding of the compounds of the invention to the NE transporter and the percent inhibition of control-specific binding ([^3H]-nisoxetine in human recombinant CHO cells) is determined following the method described in Pacholczyk et al., (Nature 1991, 350(6316): 350-4.

uptake of serotonin = uptake of serotonin (Homo sapiens, UniProt P31645); assay: Uptake inhibition of serotonin, cellular assay; assay type: cell-based; details: read-out: Serotonin reuptake inhibition (IC50 μM)
Sequence of uptake of serotonin (P31645 whole entry): as the sequence (P31645 whole entry) above
Description: as §1

mice [5] = assay: Novel object recognition test (acute); assay type: in vivo; details: 3 mg/kg i.p., same experimental conditions
Excerpt: The novel object recognition task is used to evaluate cognition, particularly memory recognition, in rodent models of CNS disorders. This test is based on the spontaneous tendency of rodents to spend more time exploring a novel object than a familiar one. The choice to explore the novel object reflects the use of learning and memory recognition. The novel object recognition test provides a measure of activity in a novel environment allowing tests for emotional reactivity and also for novel object recognition, a cognitive domain that depends on hippocampal functional integrity. Animals were habituated to the presence of two identical objects (LEGO® pieces) during a single session of 5 minutes (training) and sniffing (exploration of an object was defined as pointing the nose to the object at a distance of <1 cm and/or touching it with the nose). Mice were injected with saline or with the compound to be tested and returned to their home cages. At 24 hours the animals were introduced in the same open field again with the same two items (familiarization), and again exploration in each of them for 5 minutes was registered. One hour later, the mice were retested in the open field for 3 minutes, but this time with one of the “familiar” objects replaced by a new one (test). To analyze cognitive performance, a discrimination index was calculated as the difference in time exploring the novel and familiar object, expressed as the ratio of the total time spent exploring both objects, which made it possible to adjust for any differences in total exploration time. This test is useful for assessing impaired cognitive ability in transgenic strains of mice and evaluating novel chemical entities for their effect on cognition (Zhang, R. J Alzheimers Dis 2012, 31(4): 801-12). […] Neuroplasticity 2007, 26496).

[6] = molecular target: T3, Human dopamine transporters (Homo sapiens, UniProt Q01959); assay: Binding to the dopamine transporter ([125I]-RTI-55); details: reference compound; read-out: IC50, [125I]-RTI-55 binding to DAT
T3 construct: expressed in transfected cells; host or cells: CHO-K1 cells (membranes)
T3 sequence (Q01959 whole entry): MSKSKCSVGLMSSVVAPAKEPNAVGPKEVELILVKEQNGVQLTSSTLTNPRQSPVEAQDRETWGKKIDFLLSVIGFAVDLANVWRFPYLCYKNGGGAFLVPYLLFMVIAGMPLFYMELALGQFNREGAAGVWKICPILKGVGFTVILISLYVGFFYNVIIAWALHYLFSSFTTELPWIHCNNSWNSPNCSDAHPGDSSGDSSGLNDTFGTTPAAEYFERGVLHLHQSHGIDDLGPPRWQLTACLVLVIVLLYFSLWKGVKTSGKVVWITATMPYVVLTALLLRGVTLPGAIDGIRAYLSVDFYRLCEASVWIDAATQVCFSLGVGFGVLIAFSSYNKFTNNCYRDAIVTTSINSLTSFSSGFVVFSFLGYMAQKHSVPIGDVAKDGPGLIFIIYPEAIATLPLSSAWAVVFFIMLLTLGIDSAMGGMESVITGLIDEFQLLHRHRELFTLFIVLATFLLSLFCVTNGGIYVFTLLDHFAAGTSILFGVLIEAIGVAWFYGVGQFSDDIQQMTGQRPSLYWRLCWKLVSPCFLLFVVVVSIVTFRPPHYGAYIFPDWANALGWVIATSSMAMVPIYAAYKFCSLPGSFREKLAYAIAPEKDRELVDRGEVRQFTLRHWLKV
Description: Human dopamine transporters expressed in CHO—K1 cells are used in modified Tris-HCl buffer at pH 7.4. […] Non-specific binding is estimated in the presence of […] nomifensine.

[7] = 30 mg/kg oral, 60 minutes after dosing

Row | SMILES | antidepressant effect (duration of immobility) (mice [1]; [7]) | phosphorylation of CREB [2] | analgesic activity following formalin challenge (hind paw licking time) (mice [3]; 90 mg/kg oral) | inhibition at 10 µM (serotonin transporter) [%] | cell viability (MTT) (CHO cells) [%] | IC50 (uptake of norepinephrine) [µM] | inhibition at 10 µM [4] [%] | antidepressant effect (duration of immobility) (mice [1]; 90 mg/kg p.o.) | IC50 (uptake of serotonin) [µM] | analgesic activity following formalin challenge (hind paw licking time) (mice [3]; 30 mg/kg oral) | melting point [°C] | cognitive improvement (mice [5]) | IC50 [6] [nM]
1 | CNCCCN1c2ccccc2CCc2ccccc21 [Desipramine, reference compound] | significant effect |  |  |  |  |  |  |  |  |  |  |  | 
2 | CNCC[C@@H](Oc1ccc(CCO)cc1)c1ccccc1.Cl [Example 3, (R)-2-[4-[3-(Methylamino)-1-phenylpropoxy]phenyl]ethanol hydrochloride] |  | increase significantly | active | 68 to 82 | 100 | 1.6 to 2.9 | 65 to 90 | active | 2.5 to 4.8 |  |  |  | 
3 | CNCC[C@H](Oc1ccc(CCO)cc1)c1ccccc1.Cl [Example 4, (S)-2-[4-[3-(Methylamino)-1-phenylpropoxy]phenyl]ethanol hydrochloride] | significant activity | increase significantly | active | 68 to 82 | 100 | 1.6 to 2.9 | 65 to 90 | active | 2.5 to 4.8 | active |  |  | 
4 | Cl.NCCC(Oc1ccc(CCO)cc1)c1ccccc1 (stereo not drawn) [Example 12, 2-[4-(3-Amino-1-phenylpropoxy)phenyl]ethanol hydrochloride] |  |  |  | 78 |  | 2.7 | 79 |  | 1 |  | 68 to 70 |  | 
5 | Cl.OCCc1ccc(OCC2CNCCO2)cc1 (stereo not drawn) [Example 18, 2-[4-(Morpholin-2-ylmethoxy)phenyl]ethanol hydrochloride] |  |  | demonstrated analgesic activity | 68 to 82 | 100 | 1.6 to 2.9 | 65 to 90 |  | 2.5 to 4.8 |  | 163 to 169 |  | 
6 | C#CCN[C@@H]1CCc2ccccc21 [rasagiline, reference compound] |  |  |  |  |  |  |  |  |  |  |  | absence of cognitive improvement | 
7 | COC(=O)[C@H]1[C@H]2C[C@@H]3c4[nH]c5cc(OC)ccc5c4CCN3C[C@H]2C[C@@H](OC(=O)c2cc(OC)c(OC)c(OC)c2)[C@@H]1OC [reserpine, reference compound] |  |  |  |  |  |  |  |  |  |  |  |  | 1300
